Measurements reported in patent US20230085307A1, “PYRIDAZINONE COMPOUND AND HERBICIDE” (NISSAN CHEMICAL CORPORATION, priority 2019, published 2023).

Assays:
[1] = test system: wild oat; experiment: Test Example 4: herbicidal effect by soil treatment (Table 19, symbol I); assay type: in vivo, wild oat (Avena fatua); details: amount of applied herbicide 320 g/ha
Method in brief: (§1)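 Seeds were sown in sterilized diluvial soil and covered with about 1.5 cm of soil. An emulsion formulation diluted with water to a predetermined herbicide amount was sprayed evenly onto the soil surface. Plants grew in a greenhouse at 25° C. to 30° C., and the effect was scored three weeks after application using criteria from an earlier test.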

[2] = test system: chickweed; experiment: Test Example 4: herbicidal effect by soil treatment (Table 19, symbol P); assay type: in vivo, common chickweed (Stellaria media); details: amount of applied herbicide 320 g/ha
Method in brief: as §1

[3] = test system: lambsquarters; experiment: Test Example 5: herbicidal effect by foliage application, plastic box (Table 20, symbol O); assay type: in vivo, lambsquarters (Chenopodium album); details: foliage application, 320 g/ha, three weeks after application
Method in brief: (§2)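 Plants sown in sterilized diluvial soil and grown 14 days in a greenhouse at 25° C to 30° C, then sprayed on the foliage with the compound's emulsion diluted in water to a predetermined herbicide amount. Injury to weeds and crops scored three weeks after application on a visual rating scale.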

[4] = test system: rice flat sedge; experiment: Test Example 3: herbicidal effect by foliage application, Wagner pot (Table 18, symbol E); assay type: in vivo, rice flat sedge (Cyperus iria)
Method in brief: (§3)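 Plants were sown in alluvial soil held under 0.1–0.5 cm standing water and grown 14 days in a greenhouse at 25–30 °C. An emulsifiable formulation, water-diluted to the set dose, was then sprayed onto the foliage, and effects were scored three weeks later using previously defined criteria.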

[5] = test system: barnyard grass; experiment: Test Example 3: herbicidal effect by foliage application, Wagner pot (Table 18, symbol H); assay type: in vivo, barnyard grass (Echinochloa crus-galli)
Method in brief: as §3

[6] = test system: Italian ryegrass; experiment: Test Example 4: herbicidal effect by soil treatment (Table 19, symbol K); assay type: in vivo, Italian ryegrass (Lolium multiflorum); details: amount of applied herbicide 320 g/ha
Method in brief: as §1

[7] = test system: false cleavers; experiment: Test Example 4: herbicidal effect by soil treatment (Table 19, symbol Q); assay type: in vivo, false cleavers (Galium spurium); details: amount of applied herbicide 320 g/ha
Method in brief: as §1

[8] = test system: velvetleaf; experiment: Test Example 4: herbicidal effect by soil treatment (Table 19, symbol M); assay type: in vivo, velvetleaf (Abutilon theophrasti); details: amount of applied herbicide 320 g/ha
Method in brief: as §1

[9] = test system: velvetleaf; experiment: Test Example 5: herbicidal effect by foliage application, plastic box (Table 20, symbol M); assay type: in vivo, velvetleaf (Abutilon theophrasti); details: foliage application, 320 g/ha, three weeks after application
Method in brief: as §2

[10] = test system: wild oat; experiment: Test Example 5: herbicidal effect by foliage application, plastic box (Table 20, symbol I); assay type: in vivo, wild oat (Avena fatua); details: foliage application, 320 g/ha, three weeks after application
Method in brief: as §2

[11] = test system: green foxtail; experiment: Test Example 5: herbicidal effect by foliage application, plastic box (Table 20, symbol G); assay type: in vivo, green foxtail (Setaria viridis); details: foliage application, 320 g/ha, three weeks after application
Method in brief: as §2

[12] = test system: Japanese bulrush; experiment: Test Example 1: herbicidal activity, application before weed generation under submerged conditions (Table 16, symbol B); assay type: in vivo, Japanese bulrush (Schoenoplectus juncoides); details: amount of applied herbicide 320 g/ha
Method in brief: (§4)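 Emulsion formulation, water-diluted to set dose, was put onto the flooded surface (4 cm depth, alluvial soil) the same day weeds were sown and 2.5-leaf rice transplanted. After 3 weeks at 25-30 °C under glass, each species was rated 0 (≤5% kill) to 5 (≥90% kill).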

[13] = test system: persian speedwell; experiment: Test Example 4: herbicidal effect by soil treatment (Table 19, symbol R); assay type: in vivo, Persian speedwell (Veronica persica); details: amount of applied herbicide 320 g/ha
Method in brief: as §1

[14] = test system: Chinese sprangletop; experiment: Test Example 3: herbicidal effect by foliage application, Wagner pot (Table 18, symbol D); assay type: in vivo, chinese sprangletop (Leptochloa chinensis)
Method in brief: as §3

[15] = test system: southern crabgrass; experiment: Test Example 5: herbicidal effect by foliage application, plastic box (Table 20, symbol F); assay type: in vivo, southern crabgrass (Digitaria ciliaris); details: foliage application, 320 g/ha, three weeks after application
Method in brief: as §2

[16] = test system: lambsquarters; experiment: Test Example 4: herbicidal effect by soil treatment (Table 19, symbol O); assay type: in vivo, lambsquarters (Chenopodium album); details: amount of applied herbicide 320 g/ha
Method in brief: as §1

[17] = test system: blackgrass; experiment: Test Example 4: herbicidal effect by soil treatment (Table 19, symbol J); assay type: in vivo, blackgrass (Alopecurus myosuroides); details: amount of applied herbicide 320 g/ha
Method in brief: as §1

[18] = test system: late watergrass; experiment: Test Example 1: herbicidal activity, application before weed generation under submerged conditions (Table 16, symbol A); assay type: in vivo, late watergrass (Echinochloa oryzicola); details: amount of applied herbicide 320 g/ha
Method in brief: as §4

[19] = test system: Italian ryegrass; experiment: Test Example 5: herbicidal effect by foliage application, plastic box (Table 20, symbol K); assay type: in vivo, Italian ryegrass (Lolium multiflorum); details: foliage application, 320 g/ha, three weeks after application
Method in brief: as §2

[20] = test system: persian speedwell; experiment: Test Example 5: herbicidal effect by foliage application, plastic box (Table 20, symbol R); assay type: in vivo, Persian speedwell (Veronica persica); details: foliage application, 320 g/ha, three weeks after application
Method in brief: as §2

[21] = test system: barnyard grass; experiment: Test Example 5: herbicidal effect by foliage application, plastic box (Table 20, symbol H); assay type: in vivo, barnyard grass (Echinochloa crus-galli); details: foliage application, 320 g/ha, three weeks after application
Method in brief: as §2

[22] = test system: windgrass; experiment: Test Example 5: herbicidal effect by foliage application, plastic box (Table 20, symbol L); assay type: in vivo, windgrass (Apera spica-venti); details: foliage application, 320 g/ha, three weeks after application
Method in brief: as §2

[23] = test system: windgrass; experiment: Test Example 4: herbicidal effect by soil treatment (Table 19, symbol L); assay type: in vivo, windgrass (Apera spica-venti); details: amount of applied herbicide 320 g/ha
Method in brief: as §1

[24] = test system: green foxtail; experiment: Test Example 4: herbicidal effect by soil treatment (Table 19, symbol G); assay type: in vivo, green foxtail (Setaria viridis); details: amount of applied herbicide 320 g/ha
Method in brief: as §1

[25] = test system: southern crabgrass; experiment: Test Example 4: herbicidal effect by soil treatment (Table 19, symbol F); assay type: in vivo, southern crabgrass (Digitaria ciliaris); details: amount of applied herbicide 320 g/ha
Method in brief: as §1

[26] = test system: oval-leafed pondweed; experiment: Test Example 1: herbicidal activity, application before weed generation under submerged conditions (Table 16, symbol C); assay type: in vivo, oval-leafed pondweed (Monochoria vaginalis); details: amount of applied herbicide 320 g/ha
Method in brief: as §4

[27] = test system: redroot pigweed; experiment: Test Example 4: herbicidal effect by soil treatment (Table 19, symbol N); assay type: in vivo, redroot pigweed (Amaranthus retroflexus); details: amount of applied herbicide 320 g/ha
Method in brief: as §1

[28] = test system: barnyard grass; experiment: Test Example 4: herbicidal effect by soil treatment (Table 19, symbol H); assay type: in vivo, barnyard grass (Echinochloa crus-galli); details: amount of applied herbicide 320 g/ha
Method in brief: as §1

[29] = test system: blackgrass; experiment: Test Example 5: herbicidal effect by foliage application, plastic box (Table 20, symbol J); assay type: in vivo, blackgrass (Alopecurus myosuroides); details: foliage application, 320 g/ha, three weeks after application
Method in brief: as §2

[30] = amount of applied herbicide 320 g/ha

CCCC(=O)Oc1c(C)nn(C)c(=O)c1-c1c(-c2ccc(F)cc2OC)sc2cc(OC)c(OC)cc12 [5-061]
I: wild oat, herbicidal effect grade [1]: 0 (Herbicidal rate of 5% or less (almost no effect))
P: chickweed, herbicidal effect grade [2]: 3 (Herbicidal rate of 40% or more and less than 70%)
herbicidal effect on lambsquarters (O) [3]: 3 (Herbicidal rate of 40% or more and less than 70%)
herbicidal effect on rice flat sedge (E) ([4]; 320 g/ha): 4 (Herbicidal rate of 70% or more and less than 90%)
herbicidal effect on barnyard grass (H) ([5]; 320 g/ha): 5 (Herbicidal rate of 90% or more (almost completely withered))
K: Italian ryegrass, herbicidal effect grade [6]: 0 (Herbicidal rate of 5% or less (almost no effect))
Q: false cleavers, herbicidal effect grade [7]: 0 (Herbicidal rate of 5% or less (almost no effect))
M: velvetleaf, herbicidal effect grade [8]: 0 (Herbicidal rate of 5% or less (almost no effect))
herbicidal effect on velvetleaf (M) [9]: 0 (Herbicidal rate of 5% or less (almost no effect))
herbicidal effect on wild oat (I) [10]: 4 (Herbicidal rate of 70% or more and less than 90%)
herbicidal effect on green foxtail (G) [11]: 4 (Herbicidal rate of 70% or more and less than 90%)
Herbicidal effect, B: Japanese bulrush [12]: 3 (Herbicidal rate of 40% or more and less than 70%)
R: persian speedwell, herbicidal effect grade [13]: 2 (Herbicidal rate of 20% or more and less than 40%)
herbicidal effect on Chinese sprangletop (D) ([14]; 320 g/ha): 3 (Herbicidal rate of 40% or more and less than 70%)
herbicidal effect on southern crabgrass (F) [15]: 4 (Herbicidal rate of 70% or more and less than 90%)
O: lambsquarters, herbicidal effect grade [16]: 0 (Herbicidal rate of 5% or less (almost no effect))
J: blackgrass, herbicidal effect grade [17]: 0 (Herbicidal rate of 5% or less (almost no effect))
Herbicidal effect, A: late watergrass [18]: 5 (Herbicidal rate of 90% or more (almost completely withered))
herbicidal effect on Italian ryegrass (K) [19]: 4 (Herbicidal rate of 70% or more and less than 90%)
herbicidal effect on persian speedwell (R) [20]: 5 (Herbicidal rate of 90% or more (almost completely withered))
herbicidal effect on barnyard grass (H) [21]: 4 (Herbicidal rate of 70% or more and less than 90%)
herbicidal effect on windgrass (L) [22]: 2 (Herbicidal rate of 20% or more and less than 40%)
L: windgrass, herbicidal effect grade [23]: 0 (Herbicidal rate of 5% or less (almost no effect))
G: green foxtail, herbicidal effect grade [24]: 0 (Herbicidal rate of 5% or less (almost no effect))
F: southern crabgrass, herbicidal effect grade [25]: 0 (Herbicidal rate of 5% or less (almost no effect))
Herbicidal effect, C: oval-leafed pondweed [26]: 3 (Herbicidal rate of 40% or more and less than 70%)
N: redroot pigweed, herbicidal effect grade [27]: 0 (Herbicidal rate of 5% or less (almost no effect))
H: barnyard grass, herbicidal effect grade [28]: 0 (Herbicidal rate of 5% or less (almost no effect))
herbicidal effect on blackgrass (J) [29]: 4 (Herbicidal rate of 70% or more and less than 90%)

Cc1nn(C)c(=O)c(-c2c(-c3ccc(OC(F)F)cc3)oc3ccc(F)cc23)c1O [9-031]
I: wild oat, herbicidal effect grade [1]: 0 (Herbicidal rate of 5% or less (almost no effect))
P: chickweed, herbicidal effect grade [2]: 4 (Herbicidal rate of 70% or more and less than 90%)
herbicidal effect on lambsquarters (O) [3]: 5 (Herbicidal rate of 90% or more (almost completely withered))
Herbicidal effect on E (rice flat sedge), foliage application [4, 30]: 5 (Herbicidal rate of 90% or more (almost completely withered))
Herbicidal effect on H (barnyard grass), foliage application [5, 30]: 5 (Herbicidal rate of 90% or more (almost completely withered))
K: Italian ryegrass, herbicidal effect grade [6]: 5 (Herbicidal rate of 90% or more (almost completely withered))
Q: false cleavers, herbicidal effect grade [7]: 3 (Herbicidal rate of 40% or more and less than 70%)
M: velvetleaf, herbicidal effect grade [8]: 2 (Herbicidal rate of 20% or more and less than 40%)
herbicidal effect on velvetleaf (M) [9]: 5 (Herbicidal rate of 90% or more (almost completely withered))
herbicidal effect on wild oat (I) [10]: 4 (Herbicidal rate of 70% or more and less than 90%)
herbicidal effect on green foxtail (G) [11]: 5 (Herbicidal rate of 90% or more (almost completely withered))
Herbicidal effect, B: Japanese bulrush [12]: 0 (Herbicidal rate of 5% or less (almost no effect))
R: persian speedwell, herbicidal effect grade [13]: 5 (Herbicidal rate of 90% or more (almost completely withered))
Herbicidal effect on D (Chinese sprangletop), foliage application [14, 30]: 1 (Herbicidal rate of 5% or more and less than 20%)
herbicidal effect on southern crabgrass (F) [15]: 4 (Herbicidal rate of 70% or more and less than 90%)
O: lambsquarters, herbicidal effect grade [16]: 3 (Herbicidal rate of 40% or more and less than 70%)
J: blackgrass, herbicidal effect grade [17]: 0 (Herbicidal rate of 5% or less (almost no effect))
Herbicidal effect, A: late watergrass [18]: 2 (Herbicidal rate of 20% or more and less than 40%)
herbicidal effect on Italian ryegrass (K) [19]: 5 (Herbicidal rate of 90% or more (almost completely withered))
herbicidal effect on persian speedwell (R) [20]: 5 (Herbicidal rate of 90% or more (almost completely withered))
herbicidal effect on barnyard grass (H) [21]: 4 (Herbicidal rate of 70% or more and less than 90%)
herbicidal effect on windgrass (L) [22]: 4 (Herbicidal rate of 70% or more and less than 90%)
L: windgrass, herbicidal effect grade [23]: 4 (Herbicidal rate of 70% or more and less than 90%)
G: green foxtail, herbicidal effect grade [24]: 4 (Herbicidal rate of 70% or more and less than 90%)
F: southern crabgrass, herbicidal effect grade [25]: 4 (Herbicidal rate of 70% or more and less than 90%)
Herbicidal effect, C: oval-leafed pondweed [26]: 0 (Herbicidal rate of 5% or less (almost no effect))
N: redroot pigweed, herbicidal effect grade [27]: 5 (Herbicidal rate of 90% or more (almost completely withered))
H: barnyard grass, herbicidal effect grade [28]: 4 (Herbicidal rate of 70% or more and less than 90%)
herbicidal effect on blackgrass (J) [29]: 4 (Herbicidal rate of 70% or more and less than 90%)
